Molecules are shown by their SMILES. Some results are limits rather than exact numbers.

Broadly, the Kd is the equilibrium constant for the complex coming apart. The melting point is the temperature of the solid-liquid transition.

One data set deals with beta1-adrenoceptor (Homo sapiens, UniProt P08588). As to the kind of experiment: 3H-CGP12177 whole-cell binding, CHO cells expressing human beta1-adrenoceptor. On the set-up: expressed in transfected cells; host or cells: CHO cells. Conditions: 3H-CGP 12177 whole cell binding, mean ± s.e.mean; for Kd: log KD, read-out: Beta 1 Log KD (converted). From the text:
(§1) The selectivity of a ligand is given by the ratio of beta-1 to beta-2 KD.

Another data set deals with T1, human beta2-adrenoceptor (Homo sapiens, UniProt P07550).
T1 construct: expressed in transfected cells; host or cells: CHO cells
As to the kind of experiment: 3H-CGP12177 whole-cell binding, CHO cells expressing human beta2-adrenoceptor. The conditions noted are these: 3H-CGP 12177 whole cell binding, mean ± s.e.mean; for Kd: log KD, read-out: Beta 2 Log KD (converted).
Excerpt: as §1

In a further data set the target is T2, human beta3-adrenoceptor (Homo sapiens, UniProt P13945).
T2 construct: expressed in transfected cells; host or cells: CHO cells
As to the kind of experiment: 3H-CGP12177 whole-cell binding, CHO cells expressing human beta3-adrenoceptor. The conditions noted are these: 3H-CGP 12177 whole cell binding, mean ± s.e.mean; for Kd: log KD, read-out: Beta 3 Log KD (converted).

T1 sequence (P07550 whole entry): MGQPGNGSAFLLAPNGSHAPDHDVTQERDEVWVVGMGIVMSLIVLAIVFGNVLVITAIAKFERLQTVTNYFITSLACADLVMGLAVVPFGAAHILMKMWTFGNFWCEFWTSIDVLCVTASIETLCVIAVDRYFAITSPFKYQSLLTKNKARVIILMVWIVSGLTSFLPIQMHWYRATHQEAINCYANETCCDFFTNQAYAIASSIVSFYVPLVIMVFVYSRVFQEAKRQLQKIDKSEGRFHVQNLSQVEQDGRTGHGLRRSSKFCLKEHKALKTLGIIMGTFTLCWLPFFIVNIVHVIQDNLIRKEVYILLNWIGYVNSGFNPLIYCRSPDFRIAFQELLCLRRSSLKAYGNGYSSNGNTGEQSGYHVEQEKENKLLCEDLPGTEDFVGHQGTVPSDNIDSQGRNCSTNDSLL
Sequence of beta1-adrenoceptor (P08588 whole entry): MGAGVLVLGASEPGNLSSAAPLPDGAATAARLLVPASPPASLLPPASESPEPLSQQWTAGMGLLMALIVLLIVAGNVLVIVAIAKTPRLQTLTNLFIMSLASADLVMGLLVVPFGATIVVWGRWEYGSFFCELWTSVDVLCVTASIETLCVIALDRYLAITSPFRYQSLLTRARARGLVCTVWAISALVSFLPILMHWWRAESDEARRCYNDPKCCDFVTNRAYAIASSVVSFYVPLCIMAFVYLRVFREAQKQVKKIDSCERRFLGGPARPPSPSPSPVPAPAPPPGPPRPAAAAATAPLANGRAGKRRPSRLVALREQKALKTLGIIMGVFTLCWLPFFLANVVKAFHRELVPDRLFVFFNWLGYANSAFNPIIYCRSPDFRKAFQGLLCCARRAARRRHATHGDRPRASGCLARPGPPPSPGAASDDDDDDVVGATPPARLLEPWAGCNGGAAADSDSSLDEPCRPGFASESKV
T2 sequence (P13945 whole entry): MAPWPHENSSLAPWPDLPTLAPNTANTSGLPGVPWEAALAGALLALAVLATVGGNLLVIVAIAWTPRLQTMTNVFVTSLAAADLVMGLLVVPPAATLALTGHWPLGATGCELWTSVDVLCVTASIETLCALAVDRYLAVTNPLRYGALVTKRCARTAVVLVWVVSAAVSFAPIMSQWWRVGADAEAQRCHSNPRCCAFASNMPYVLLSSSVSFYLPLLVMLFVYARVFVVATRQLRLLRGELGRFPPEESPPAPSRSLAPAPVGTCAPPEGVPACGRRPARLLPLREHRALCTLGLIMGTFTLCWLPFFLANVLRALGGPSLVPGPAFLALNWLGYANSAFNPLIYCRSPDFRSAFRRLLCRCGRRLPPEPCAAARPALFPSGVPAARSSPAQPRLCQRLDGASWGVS

Take `Cc1cccc(NC(=O)NCCNCC(O)COc2ccc(OCCOC3CCCC3)cc2)c1` (stereo not drawn) [47c]: the “Beta 1 Log KD” value at beta1-adrenoceptor was −8.04 ± 0.04. For the same compound, at human beta2-adrenoceptor, the “Beta 2 Log KD” value was −6.06 ± 0.03. For the same compound, the Kd at human beta3-adrenoceptor is 17.4 µM.

In turn, `OC(CNCCOc1cccc(Cl)c1)COc1ccc(OCCOC2CCCC2)cc1` (stereo not drawn) (hydrate or solvate) [65a] registered a melting point of 73.5 °C.

As for `O=C(NCCNCC(O)COc1ccc(OCCOC2CCCC2)cc1)Nc1ccc(O)c(F)c1` (stereo not drawn) [compound 54, 1-(2-(3-(4-(2-(Cyclopentyloxy)ethoxy)phenoxy)-2-hydroxypropylamino)ethyl)-3-(3-fluoro-4-hydroxyphenyl)urea Hydroformate], the Kd at beta1-adrenoceptor is 0.00851 µM; on human beta2-adrenoceptor, 2.57 µM; on human beta3-adrenoceptor, 10.2 µM.

Consider `OC(CNCCOc1ccc(-c2ccccc2)cc1)COc1ccc(OCCOC2CCCC2)cc1` (stereo not drawn) (hydrate or solvate) [65d], for which the melting point lay in the range of 154 to 155 °C.

For the compound `CCOCCOc1ccc(OCC(O)CNCCNC(=O)Nc2cccc(Cl)c2)cc1` (stereo not drawn) [46f, 1-(2-(3-(4-(2-Ethoxyethoxy)phenoxy)-2-hydroxypropylamino)ethyl)-3-(3-chlorophenyl)urea hydroformate], the Kd on beta1-adrenoceptor was 0.0316 µM; at human beta2-adrenoceptor it was 6.31 µM; at human beta3-adrenoceptor, 7.24 µM.

For the compound `O=C(Cc1ccc(C(F)(F)F)cc1)NCCNCC(O)COc1ccc(OCCOC2CCCC2)cc1` (stereo not drawn) [62o], the melting point was in the range of 132 to 133 °C. Besides, the equilibrium dissociation constant (Kd) on beta1-adrenoceptor is 0.00912 µM. For the same compound, at human beta2-adrenoceptor, the Kd was 0.214 µM.

In the case of `O=C(NCCNCC(O)COc1ccc(OCCOC2CCCC2)cc1)c1cccc(O)c1` (stereo not drawn) [54e], the Kd on beta1-adrenoceptor was 0.0309 µM; on human beta2-adrenoceptor, 0.282 µM; on human beta3-adrenoceptor, 1.1 µM.

Compound `CCOCCOc1ccc(OCC(O)CNCCNC(=O)Nc2ccc(O)cc2)cc1` (stereo not drawn) [46d] came in with a melting point of 96 to 98 °C. For the same compound, the Kd on beta1-adrenoceptor is 0.0832 µM. In addition, at human beta2-adrenoceptor, the Kd was more than 100 µM.

Turning to `O=C(Cc1cccc(O)c1)NCCNCC(O)COc1ccc(OCCOC2CCCC2)cc1` (stereo not drawn) [54j, N-(2-(3-(4-(2-(cyclopentyloxy)ethoxy)phenoxy)-2-hydroxypropylamino)ethyl)-2-(3-hydroxyphenyl)acetamide], the Kd on beta1-adrenoceptor is 0.00372 µM; on human beta2-adrenoceptor, 0.0155 µM; on human beta3-adrenoceptor, 2.51 µM.

As for `O=C(NCCNCC(O)COc1ccc(OCCOC2CCCC2)cc1)c1ccc(O)cc1` (stereo not drawn) [54f], the Kd was 0.00174 µM on beta1-adrenoceptor, 0.162 µM on human beta2-adrenoceptor and 0.513 µM on human beta3-adrenoceptor.

With `O=C(NCCNCC(O)COc1ccc(OCCOC2CCCC2)cc1)Nc1ccccc1O` (stereo not drawn) [47t, 1-(2-(3-(4-(2-(Cyclopentyloxy)ethoxy)phenoxy)-2-hydroxypropylamino)ethyl)-3-(2-hydroxyphenyl)urea], the “Beta 1 Log KD” value on beta1-adrenoceptor is on record as −6.99 ± 0.08. Moreover, the Kd on human beta3-adrenoceptor was 3.98 µM.

For the compound `CCOCCOc1ccc(OCC(O)CNCCNC(=O)Cc2ccccc2O)cc1` (stereo not drawn) [46g, N-(2-(3-(4-(2-ethoxyethoxy)phenoxy)-2-hydroxypropylamino)ethyl)-2-(2-hydroxyphenyl)acetamide], the Kd on beta1-adrenoceptor was 0.0776 µM; on human beta2-adrenoceptor it was 0.537 µM; on human beta3-adrenoceptor, 10 µM.

Turning to `N#Cc1cc(OCCOCC2CC2)ccc1OCC(O)CNCCNC(=O)Nc1ccc(O)cc1` (stereo not drawn) [LK204-545], on human beta2-adrenoceptor, the “Beta 2 Log KD” value is given as −5.20 ± 0.03. The “Beta 3 Log KD” value at human beta3-adrenoceptor is −4.62 ± 0.09.

The compound `O=C(Cc1ccc(F)cc1)NCCNCC(O)COc1ccc(OCCOC2CCCC2)cc1` (stereo not drawn) [62i] had a melting point of 114.5 to 115.5 °C. The Kd on beta1-adrenoceptor is 0.00776 µM. Further, on human beta2-adrenoceptor, the Kd was 0.178 µM.

With `Nc1cccc(C(=O)NCCNCC(O)COc2ccc(OCCOC3CCCC3)cc2)c1` (stereo not drawn) [62c], the melting point is 105 to 107.5 °C. For the same compound, at beta1-adrenoceptor, the Kd was 0.174 µM. Also, the Kd at human beta2-adrenoceptor is 4.47 µM.

Regarding `OC(CNCCNC(=S)Nc1ccccc1)COc1ccc(OCCOC2CCCC2)cc1` (stereo not drawn) [compound 52, 1-(2-(3-(4-(2-(Cyclopentyloxy)ethoxy)phenoxy)-2-hydroxypropylamino)ethyl)-3-phenylthiourea], the dissociation constant (Kd) on beta1-adrenoceptor was 0.0813 µM; on human beta2-adrenoceptor, 0.692 µM; at human beta3-adrenoceptor it was 7.08 µM.

In the case of `O=C(Cc1ccccc1C(F)(F)F)NCCNCC(O)COc1ccc(OCCOC2CCCC2)cc1` (stereo not drawn) [62m], the melting point fell in the range of 120.5 to 121.5 °C. For the same compound, the dissociation constant (Kd) at beta1-adrenoceptor was 0.00955 µM. For the same compound, at human beta2-adrenoceptor, the dissociation constant Kd was 0.126 µM.

For `O=C(Cc1cccc(C(F)(F)F)c1)NCCNCC(O)COc1ccc(OCCOC2CCCC2)cc1` (stereo not drawn) [62n], the melting point lay in the range of 111.5 to 112.5 °C. Besides, the dissociation constant (Kd) on beta1-adrenoceptor is 0.0132 µM. For the same compound, the Kd at human beta2-adrenoceptor was 0.2 µM.

The compound `Cc1ccccc1CC(=O)NCCNCC(O)COc1ccc(OCCOC2CCCC2)cc1` (stereo not drawn) [62p] had a melting point of 119 to 120.5 °C. For the same compound, at beta1-adrenoceptor, the Kd was 0.00955 µM. Also, the dissociation constant (Kd) at human beta2-adrenoceptor was 0.0724 µM.

For `O=C(NCCNCC(O)COc1ccc(OCCOC2CCCC2)cc1)Nc1cccc(O)c1` (stereo not drawn) [47u, 1-(2-(3-(4-(2-(Cyclopentyloxy)ethoxy)phenoxy)-2-hydroxypropylamino)ethyl)-3-(3-hydroxyphenyl)urea], the “Beta 1 Log KD” value at beta1-adrenoceptor is reported as −7.89 ± 0.06. Further, the “Beta 2 Log KD” value on human beta2-adrenoceptor is recorded as −5.85 ± 0.06. On human beta3-adrenoceptor, the Kd was 6.92 µM.

With `Oc1ccc(OCCNCC(O)COc2ccc(OCCOC3CCCC3)cc2)cc1` (stereo not drawn) (hydrate or solvate) [65e], the melting point is 101 to 103 °C.

`COc1cccc(CC(=O)NCCNCC(O)COc2ccc(OCCOC3CCCC3)cc2)c1` (stereo not drawn) [62s] registered a melting point of 110 to 113 °C. Moreover, on beta1-adrenoceptor, the Kd is 0.0107 µM. In addition, the Kd at human beta2-adrenoceptor was 0.0537 µM.

Turning to `Oc1ccc(OCCCNCC(O)COc2ccc(OCCOC3CCCC3)cc2)cc1` (stereo not drawn) (hydrate or solvate) [65f], the melting point was 136 °C.

Compound `O=C(Cc1ccc(Cl)cc1)NCCNCC(O)COc1ccc(OCCOC2CCCC2)cc1` (stereo not drawn) [62l] gave a melting point of 107 to 109 °C. The Kd on beta1-adrenoceptor is 0.00759 µM. Also, the Kd on human beta2-adrenoceptor was 0.162 µM.

As to `O=C(NCCNCC(O)COc1ccc(OCCOCC2CC2)cc1)Nc1ccc(OCc2ccccc2)cc1` (stereo not drawn) [45a], the Kd on beta1-adrenoceptor is 0.0708 µM; on human beta3-adrenoceptor it was 1.78 µM.

`O=C(Cc1ccccc1F)NCCNCC(O)COc1ccc(OCCOC2CCCC2)cc1` (stereo not drawn) [62g] returned a melting point of 122 to 124 °C. Further, at beta1-adrenoceptor, the Kd is 0.0024 µM. Besides, the Kd at human beta2-adrenoceptor was 0.0977 µM.

`O=C(NCCNCC(O)COc1ccc(OCCOC2CCCC2)cc1)c1ccccc1` (stereo not drawn) [62a] returned a melting point of 149 to 152 °C. Also, the Kd at beta1-adrenoceptor was 0.0692 µM. On human beta2-adrenoceptor, the Kd was 1.15 µM.

Regarding `O=C(NCCNCC(O)COc1ccc(OCCOCC2CC2)cc1)Nc1ccc(OCc2ccccc2)cc1` (stereo not drawn) (hydrate or solvate) [45a], the melting point is 131 to 133 °C.

For `Nc1ccccc1C(=O)NCCNCC(O)COc1ccc(OCCOC2CCCC2)cc1` (stereo not drawn) [62b], the melting point is 107 to 109 °C. Moreover, the Kd at beta1-adrenoceptor was 0.0178 µM. Moreover, the Kd on human beta2-adrenoceptor was 0.309 µM.

On to `O=C(Cc1ccccc1Cl)NCCNCC(O)COc1ccc(OCCOC2CCCC2)cc1` (stereo not drawn) [62j], for which the melting point was 113.5 to 114.5 °C. Also, the Kd on beta1-adrenoceptor is 0.00347 µM. Further, the Kd on human beta2-adrenoceptor is 0.0575 µM.

`O=C(Cc1cccc(F)c1)NCCNCC(O)COc1ccc(OCCOC2CCCC2)cc1` (stereo not drawn) [62h]: the melting point lay within 116.5 to 118 °C. The Kd on beta1-adrenoceptor is 0.00676 µM. On human beta2-adrenoceptor, the Kd was 0.11 µM.

Consider `CC(C)OCCOc1ccc(OCC(O)CNCCNC(=O)Nc2ccc(O)cc2)cc1` (stereo not drawn) [46l, 1-(2-(3-(4-(2-(Isopropyloxy)ethoxy)phenoxy)-2-hydroxypropylamino)ethyl)-3-(4-hydroxyphenyl)urea], for which the results for the Kd on beta1-adrenoceptor and on human beta2-adrenoceptor were 0.0589 µM and 15.5 µM, respectively.

Take `CC(=O)Oc1ccc(CC(=O)NCCNCC(O)COc2ccc(OCCOC3CCCC3)cc2)cc1` (stereo not drawn) [62w, 4-(2-(2-(3-(4-(2-(Cyclopentyloxy)ethoxy)phenoxy)-2-hydroxypropylamino)ethylamino)-2-oxoethyl)phenyl acetate]: at beta1-adrenoceptor, the “Beta 1 Log KD” value is −8.09 ± 0.03. The “Beta 2 Log KD” value on human beta2-adrenoceptor is on record as −6.59 ± 0.02.

Turning to `O=C(Cc1ccc(O)cc1)NCCNCC(O)COc1ccc(OCCOC2CCCC2)cc1` (stereo not drawn) [62v], the melting point lay within 127.5 to 130 °C. Moreover, the Kd at beta1-adrenoceptor was 0.00537 µM. The dissociation constant Kd at human beta2-adrenoceptor was 0.251 µM.

`O=C(Cc1cccc(Cl)c1)NCCNCC(O)COc1ccc(OCCOC2CCCC2)cc1` (stereo not drawn) [62k] registered a melting point of 117 to 118 °C. Besides, on beta1-adrenoceptor, the Kd was 0.00692 µM. The Kd at human beta2-adrenoceptor was 0.135 µM.

Take `Nc1ccc(C(=O)NCCNCC(O)COc2ccc(OCCOC3CCCC3)cc2)cc1` (stereo not drawn) [62d]: the melting point was 67 to 69 °C. The Kd on beta1-adrenoceptor was 0.0138 µM. At human beta2-adrenoceptor, the Kd was 5.5 µM.

With `O=C(NCCNCC(O)COc1ccc(OCCOC2CCCC2)cc1)Nc1ccc(OCCF)cc1` (stereo not drawn) [47x, 1-(2-(3-(4-(2-(Cyclopentyloxy)ethoxy)phenoxy)-2-hydroxypropylamino)ethyl)-3-(4-(2-fluoroethoxy)phenyl)urea], the values for the Kd at beta1-adrenoceptor and on human beta2-adrenoceptor were 0.0178 µM and 1.82 µM, respectively.

Regarding `OC(CNCCOc1ccc(-c2ccccc2)cc1)COc1ccc(OCCOC2CCCC2)cc1` (stereo not drawn) [65d], the Kd was 0.398 µM on beta1-adrenoceptor and 79.4 µM at human beta2-adrenoceptor.

Regarding `COc1ccc(NC(=O)NCCNCC(O)COc2ccc(OCCOC3CCCC3)cc2)cc1Cl` (stereo not drawn) [54b, 1-(3-Chloro-4-methoxyphenyl)-3-(2-(3-(4-(2-(cyclopentyloxy)ethoxy)phenoxy)-2-hydroxypropylamino)ethyl)urea], the values for the Kd on beta1-adrenoceptor and at human beta2-adrenoceptor were 0.0195 µM and 1.51 µM, respectively.

In turn, `Cc1ccc(CC(=O)NCCNCC(O)COc2ccc(OCCOC3CCCC3)cc2)cc1` (stereo not drawn) [62r] gave a melting point of 82 to 85 °C. The Kd at beta1-adrenoceptor is 0.0501 µM. Moreover, the Kd on human beta2-adrenoceptor is 0.776 µM.

Source of the values: patent publication US20130261178A1, “PHENOXYPROPANOL DERIVATIVES AND THEIR USE IN TREATING CARDIAC AND CARDIOVASCULAR DISEASES” (priority 2010, published 2013).
